Data set [1] addresses T1, LecA (Pseudomonas aeruginosa, UniProt Q05097).
T1 construct: made in house
Kind of data set: Competitive binding assay based on fluorescence polarization with LecA. Particulars: target LecA; read-out: IC50 ± s.d. As to the method:
LecA (according to Joachim et al.): A serial dilution of the test compounds was prepared in TBS/Ca (8.0 g/L NaCl, 2.4 g/L Tris, 0.19 g/L KCl, 0.15 g/L CaCl2·2 H2O), with 30% DMSO as co-solvent. […] The measured intensities were reduced by the values of only LecA in TBS/Ca and fluorescence polarization was calculated. The data was analysed with the MARS Data Analysis Software (BMG Labtech GmbH, Germany) and fitted according to the four-parameter variable slope model. Bottom and top plateaus were fixed according to the control compounds in each assay ((p-nitrophenyl)-p-D-galactoside) and the data was re-analysed with these values fixed. A minimum of three independent measurements on three plates was performed for each inhibitor.
Averages and standard deviations were calculated from at least three independent experiments.
A general note: Polarisation of emitted light reports the rotation of a fluorescent probe.

Data set [2] in a line: Prodrug activation assay in human blood plasma spiked with P. aeruginosa PA14 culture supernatant. It is filed as in vitro ADME, Pseudomonas aeruginosa PA14. The settings on record: 50% human blood plasma spiked with 10% P. aeruginosa culture supernatant, within 3 h. As to the method: In the prodrug activation assay, the bacterial strain Pseudomonas aeruginosa PA14 wt (DSM 19882) was used. The strain was obtained from the German Collection of Microorganisms and Cell Cultures (DSMZ).
P. aeruginosa PA14 was streaked on LB-agar plates (1% agar) from glycerol stocks and incubated at 37° C. overnight. 2-5 colonies were picked and dispersed in 10 mL LB (10 g/L trypton, 10 g/L NaCl, 5 g/L yeast extracts). This dispersion was incubated overnight at 37° C., 180 rpm under high humidity. The culture was centrifuged (4000 ref, room temperature, 10 min) and the supernatant was filtered (0.22 m pore size). […]
A 1 mM solution of the studied compound was prepared in PBS (150 mM NaCl, 2.6 mM KCl, 1.4 mM KH2PO4, 10 mM Na2HPO4, pH 7.4) with 20% DMSO. 50 μL of this solution was diluted in 950 μL matrix or human plasma (spiked with 10% LB) on ice. After brief vortex, 100 μL were immediately treated with 100 μL ice-cold MeCN (spiked with […] diphenhydramine as internal standard). The rest of the solution was incubated at 37° C. and 500 rpm in an eppendorf thermomixer. At various time points (30, 60, 120, 180 min), 100 L sample were taken and treated as described above. […] The AUC of the parent drug and its cleavage products and the internal standard was quantified using Compass QuantAnalysis quantification software. The relative AUC was calculated by AUC (compound)/AUC(ISTD). Procaine was used as a positive control as it readily degrades in human plasma.

In data set [3] the test system is A549 cells. Put plainly: Cell accumulation assay. It is filed as cell-based, human. The settings on record: for intracellular drug levels: 15 min after incubation. As to the method: A549 cells were seed into 96-well-plates as described for the cytotoxicity assay. Cells were cultivated at 37° C. and 5% CO2 until they reached 95% confluency. Cells were treated with 2, 36 or 37 at a final concentration of 10 µg/ml or left untreated. Each condition was assayed in technical dupli-cates with two biological replicates. Cells were treated for 15 min, 30 min and 60 min. After incubation for the respective time point, cells were washed twice with pre-warmed PBS and were then lysed in MeOH and scratched from the surface. Supernatants from medium, wash fluids as well as the cell extracts were subjected to mass spectrometric analysis. For wash fluid and medium samples, calibration and QC samples were prepared using PBS as matrix and spiking the respective compounds into the matrix. For cell extract samples, calibration and QC samples were prepared using MeOH as matrix. For calibration and QC samples compounds were dispensed using a Mantis(R) Formulatrix. […] Supernatants were transferred to a Greiner V-bottom plate, sealed and subjected for HPLC-MS/MS analysis.
Cell samples as well as plasma stability, plasma protein binding and metabolic stability samples were analysed using an Agilent 1290 Infinity II coupled to an AB Sciex 6500plus mass spec-trometer. LC conditions were as follows: column: Agilent Zorbax Eclipse Plus C18, 50×2.1 mm, 1.8 m; temperature: 30° C.; injection volume: 5 l per sample; flow rate: 700 l/min. Solvents: A: water+0.1% formic acid; solvent B: 95% acetonitrile/5% H2O+0.1% formic acid. Gradient for 2, 36 and 37: 99% A from 0 min until 1 min; 99-0% A from 1.0 until 2.2 min, 0% A until 3.2 min. Gradient for naproxene: 99% A from 0 min until 1 min; 99-0% A from 1.0 until 5.5 min, 0% A until 6.0 min. Gradient for […] and […]: 99% A from 0 min until 1.0 min, 99-0% A from 1.0 until 3.5 min, 0% A until 3.7 min. Mass transitions for controls and compounds are depicted in table 5.

Data set [4] has as its target LecB PAO1 (Pseudomonas aeruginosa, UniProt Q9HYN5). Type of data set: binding. The settings on record: target LecB PAO1. As to the method:
LecB (LecB PAO1 according to Hauck et al. and LecB PA14 according to Sommer et al.): A serial dilution of the test compounds was prepared in TBS/Ca, with 20% DMSO as cosolvent. […] Fluorescence was measured and analysed as for LecA. Bottom and top plateaus were fixed according to the control compound in each assay (1-fucose) and the data was re-analysed with these values fixed. A minimum of three independent measurements on three plates was performed for each inhibitor.

Data set [5] relates to A549 cells. Kind of data set: Cytotoxicity assay (MTT). Particulars: 24 h. It is filed as cell-based, human. From the text: Then supernatant was transferred to a 96-well-plate. […] The experiment was repeated at least three times. The error bars indicate the standard deviation.

Entries after “also recorded” stand apart in the source; their conditions may differ.

Consider 2 compounds from patent publication US20250295790A1, “LECTIN-TARGETING CONJUGATES” (Helmholtz-Zentrum für Infektionsforschung GmbH, priority 2021, published 2025).

Sequence of LecB PAO1 (Q9HYN5 entry or part of it): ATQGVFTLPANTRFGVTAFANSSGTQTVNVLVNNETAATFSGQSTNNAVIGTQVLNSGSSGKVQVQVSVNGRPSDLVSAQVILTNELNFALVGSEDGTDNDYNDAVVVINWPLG
T1 sequence (Q05097 whole entry): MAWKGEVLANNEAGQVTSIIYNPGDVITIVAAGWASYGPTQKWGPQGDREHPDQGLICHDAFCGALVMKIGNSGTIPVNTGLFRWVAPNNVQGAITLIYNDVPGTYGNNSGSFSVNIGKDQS

Consider `CC(C)C[C@H](NC(=O)CNC(=O)[C@H](C)NC(=O)c1ccc(S[C@@H]2O[C@H](CO)[C@H](O)[C@H](O)[C@H]2O)cc1)C(=O)N[C@@H](C)C(=O)N[C@H]1CCN(c2cc3c(cc2F)c(=O)c(C(=O)O)cn3C2CC2)C1` [Compound 36], for which the IC50 in data set [1] is roughly 30 µM. Further, the “release of antibiotic cargo” value in data set [2] was “release their antibiotic cargo; also recorded: released a significant amount of their antibiotic cargo; also recorded: efficiently released their antibiotic cargo”. Further, in data set [3], the “intracellular cleavage to compound 2” value is “not the case” and the intracellular drug levels entry is reported as “very low intracellular drug levels”. The intracellular concentration in data set [3] (10 μg/ml, after 30 and 60 min) fell in the range of 0.013 to 0.016 µg/mL.

With `CC(C)CC(NC(=O)CNC(=O)C(C)NC(=O)c1ccc(S(=O)(=O)NCC2OC(C)C(O)C(O)C2O)cc1)C(=O)NC(C)C(=O)NC1CCN(c2cc3c(cc2F)c(=O)c(C(=O)O)cn3C2CC2)C1` (stereo not drawn) [Compound 37], in data set [4], half-maximal inhibition (IC50) required 3.59 ± 1.92 µM and the “IC50 ± s.d.” value was “one-digit micromolar range”. In data set [4] (calculated as Ki from IC50, read-out: Ki ± s.d.), the Ki was 1.43 ± 0.9 µM. The “release of antibiotic cargo” value in data set [2] is “release their antibiotic cargo; also recorded: released a significant amount of their antibiotic cargo; also recorded: efficiently released their antibiotic cargo”. The IC50 in data set [5] was greater than 50 µM. In data set [3], the “intracellular cleavage to compound 2” value is given as “not the case” and the intracellular drug levels result is “very low intracellular drug levels”.

One may read the IC50 as the point on the concentration scale where inhibition reaches its midpoint. What is called Ki is a measure of affinity in units of concentration, obtained from inhibition or displacement.
